# According to patent US20170174633A1 (RESEARCH TRIANGLE INSTITUTE, priority 2014, published 2017):
# Where “and” joins values, the source holds several entries; their conditions need not be identical. Identical values can stand only once.
# Key:
# rNTS1 receptor = target: T1, rNTS1 receptor (Rattus norvegicus, UniProt P20789); test: Calcium mobilization assay for NTS1 receptor (FLIPR assay, FlexStation II); format: cell-based; settings: for Kb: read-out: NTS1 Ke
# T1 construct: expressed in transfected cells
# T1 sequence (P20789 whole entry): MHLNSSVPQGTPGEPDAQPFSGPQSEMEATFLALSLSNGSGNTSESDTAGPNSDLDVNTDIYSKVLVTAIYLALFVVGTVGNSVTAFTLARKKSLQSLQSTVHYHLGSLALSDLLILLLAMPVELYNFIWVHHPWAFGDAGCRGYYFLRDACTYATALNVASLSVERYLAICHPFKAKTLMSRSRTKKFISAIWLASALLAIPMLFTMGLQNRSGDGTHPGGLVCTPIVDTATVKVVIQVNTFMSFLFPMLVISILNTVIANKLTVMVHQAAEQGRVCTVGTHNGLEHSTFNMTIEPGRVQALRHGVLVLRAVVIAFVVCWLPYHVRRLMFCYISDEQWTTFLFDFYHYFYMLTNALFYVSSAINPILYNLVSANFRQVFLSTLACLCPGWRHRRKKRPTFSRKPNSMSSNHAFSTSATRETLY
# Procedure: (§1) The binding affinities of the test compounds for the rNTS1 and rNTS2 receptors listed in Tables 1 through 4 were determined using previously reported competitive binding assays^49. […] The cells used in the binding assay were CHO-kl cells (American Type Culture Collection) engineered to over-express either the rNTS1 or rNTS2 receptor. Measures of functional agonism and antagonism were obtained by measuring changes in intensity of a calcium-sensitive fluorescent dye as an indirect measure of changes in internal calcium concentrations. These measurements were performed using a FLIPR Tetra (NTS2) or a FlexStation II plate reader for NTS1 (Molecular Devices) and were analyzed using GraphPad Prism software.
# CHO-kl-rNTS1 cells were maintained in DMEM/F12 medium supplemented with 10% fetal bovine serum (Gibco), 100 U/ml penicillin/100 ug/ml streptomycin, 100 ug/ml normocin (Invivogen), and 250 ug/ml geneticin. For calcium mobilization assays, cells were plated at 30,000 cells/well in black, clear-bottom 96-well plates 24 hrs before the assay and incubated at 37° C., 5% CO2. Prior to the assay, Calcium 5 dye (Molecular Devices) was reconstituted according to manufacturer instructions. The reconstituted dye was diluted 1:40 in assay buffer (lx HBSS, 20 mM HEPES, and 2.5 mM Probenicid (Sigma), pH 7.4). Growth media was removed and 200 ul of this diluted dye was added to each well. Plates were incubated for 45 min at 37° C., 5% CO2 after dye addition. […] Full-log serial dilutions of the test compounds were made at 10× the desired final concentration in 1% DMSO assay buffer and warmed to 37° C. After the pre-treatment incubation, fluorescence intensity was measured on a FlexStation II fluorometric imaging plate reader (Molecular Devices). Relative fluorescence units (RFU) were measured before (20 readings) and after (40 readings) the agonist compound addition for a total 60 second read time (Excitation=485 nm, Emission=525 nm, cutoff=515 nm). For antagonist assays, cells were treated with Calcium dye for 45 min at 37° C., 5% CO2 as with the agonist assays. Then the test antagonist compounds were added in 1% DMSO in assay buffer and the plate was incubated for 15 min at 37° C., 5% CO2.
# (§2) To determine EC50, IC50, and Ke values, data were fit to a three-parameter logistic equation using GraphPad Prism software. Ki values for radioligand binding assays were determined from ICso values using the equation of Cheng and Prusoff. All data are from at least three independent experiments run in duplicate wells.
# rNTS2 receptor [1] = target: T2, rNTS2 receptor (Rattus norvegicus, UniProt Q63384); test: Calcium mobilization assay for NTS2 receptor (FLIPR Tetra); format: cell-based; settings: for NTS2 Emax % of 5b / EC50: FLIPR assay, ± SEM; for NTS2 Emax % of 5b: calcium release relative to 5b; for EC50: compound induced calcium release, CHO-kl-rNTS2 cells; for activity in NTS2 FLIPR assay: calcium release
# T2 construct: expressed in transfected cells
# T2 sequence (Q63384 1-416): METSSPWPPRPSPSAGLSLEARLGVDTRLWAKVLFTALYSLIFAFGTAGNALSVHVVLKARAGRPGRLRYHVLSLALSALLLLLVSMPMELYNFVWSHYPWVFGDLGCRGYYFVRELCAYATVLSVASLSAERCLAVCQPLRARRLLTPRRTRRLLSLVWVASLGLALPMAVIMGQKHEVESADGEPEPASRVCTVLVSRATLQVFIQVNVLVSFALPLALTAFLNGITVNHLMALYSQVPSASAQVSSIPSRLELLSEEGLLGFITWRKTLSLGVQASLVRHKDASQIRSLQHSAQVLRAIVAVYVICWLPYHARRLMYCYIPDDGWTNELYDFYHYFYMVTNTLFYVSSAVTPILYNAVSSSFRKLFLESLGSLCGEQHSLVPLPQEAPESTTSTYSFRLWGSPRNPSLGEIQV
# Procedure: as §1
# CHO-kl-rNTS2 cells were maintained in DMEM/F12 supplemented with 10% FBS, pen/strep, 100 μg/ml normocin, and 400 μg/ml geneticin. For calcium mobilization assays, cells were plated at 25,000 cells/well in black, clear-bottom 96-well plates 24 hrs before the assay and incubated at 37° C., 5% CO2. 100 μl reconstituted Calcium 5 dye (Molecular Devices, diluted 1:20 in assay buffer (1×HBSS, 20 mM HEPES, 2.5 mM Probenicid, pH 7.4)) was added per well and plates were incubated for 45 min at 37° C., 5% CO2. […] Full-log serial dilutions of the test compounds were made at 10× the desired final concentration in 1% DMSO assay buffer and warmed to 37° C. After the pre-treatment incubation, fluorescence intensity was measured on a FLIPR Tetra fluorometric imaging plate reader (Molecular Devices). Relative Fluorescence Units (RFUs) were measured every second for 100 seconds (14 readings before compound addition to establish baseline fluorescence, 85 after) Exposure time 0.53 s, Gain=2000, Excitation intensity=30%, Gate open=10%. For antagonist assays, 1/10 volume of 10×concentration of the test compound dilutions in 10% DMSO in assay buffer was added to cells in lieu of the 10% DMSO only in assay buffer for the pre-treatment.
# as §2
# rNTS2 receptor [2] = target: T2, rNTS2 receptor; test: 125I-NT competitive binding assay, whole CHO-kl cells over-expressing rNTS2; settings: competition with 125I-NT; ± SEM; read-out: 125I-NT Binding NTS2 Ki
# Procedure: as §1
# Briefly, cells were plated at 100,000 cells/well in 24-well plates in complete DMEM/F12 medium supplemented with 10% fetal bovine serum, 100 units of penicillin/mL, 100 μg of streptomycin/mL, 0.1 mg/mL of normocin, and 250 μg/mL geneticin. Cells were incubated at 37° C. with 5% CO2 and 95% humidity for 48 hrs. […] Cells were washed twice in Earle's buffer, extracted in 1 ml 0.1N NaOH and counted in a Packard Cobra II Gamma Counter for 1 minute.
# as §2
# [3] = antagonism of NT induced calcium release, ± SEM
activity in NTS1 FLIPR assay (rNTS1 receptor; agonist and antagonist mode versus NT),NTS1 Ke (rNTS1 receptor; [3]),EC80 of 5b (rNTS2 receptor [1]; final concentration used in IC50 assays),SMILES,Kb (rNTS1 receptor; [3]),NTS2 Emax % of 5b (rNTS2 receptor [1]),EC50 (rNTS2 receptor [1]),Ki (rNTS2 receptor [2]),activity in NTS2 FLIPR assay (rNTS2 receptor [1])
–,–,–,"COc1cccc(OC)c1-c1cc(C(=O)NC2(C(=O)O)CCCCC2)nn1-c1ccnc2cc(Cl)ccc12 [21b, 1-({[1-(7-Chloroquinolin-4-yl)-5-(2,6-dimethoxyphenyl)-1H-pyrazol-3-yl]carbonyl}amino)cyclo-hexanecarboxylic Acid]",157 ± 45 nM,78 % of 5b and 78 ± 7 % of 5b,29 ± 2 nM,151 nM,–
inactive,–,–,"COc1cccc(OC)c1-c1cc(C(=O)NC2C3CC4CC(C3)CC2C4)nn1-c1ccnc2cc(Cl)ccc12 (centres unmarked) [compound 13, 1-(7-chloroquinolin-4-yl)-5-(2,6-dimethoxyphenyl)-N-tricyclo[3.3.1.13,7]dec-2-yl-1H-pyrazole-3-carboxamide]",–,–,–,–,inactive
–,–,–,"COc1ccc(OC)c(-c2cc(C(=O)N[C@H](C(=O)O)C3CCCCC3)nn2-c2ccnc3cc(Cl)ccc23)c1 [15b, (2S)-({[1-(7-chloroquinolin-4-yl)-5-(2,5-dimethoxyphenyl)-1H-pyrazol-3-yl]carbonyl}amino) (cyclohexyl)ethanoic acid]",1280 ± 544 nM,19 ± 3 % of 5b,216 ± 29 nM,604 ± 141 nM,–
–,–,–,"COc1cccc(OC)c1-c1cc(C(=O)N[C@H](C(=O)O)C2CCCCC2)nn1-c1ccc(F)cc1 [28b, (2S)-Cyclohexyl({[5-(2,6-dimethoxyphenyl)-1-(4-fluorophenyl)-1H-pyrazol-3-yl]carbonyl}amino)ethanoic Acid]",3340 ± 549 nM,22 ± 5 % of 5b,271 ± 24 nM,622 ± 245 nM,–
–,–,–,"COc1cccc(OC)c1-c1cc(C(=O)NC2(C(=O)O)CCCCCC2)nn1-c1ccnc2cc(Cl)ccc12 [20b, 1-({[1-(7-Chloroquinolin-4-yl)-5-(2,6-dimethoxyphenyl)-1H-pyrazol-3-yl]carbonyl}amino)cyclo-heptanecarboxylic Acid]",42 ± 6 nM,89 ± 5 % of 5b,21 ± 5 nM,170 nM,–
–,–,–,"CCc1c(C(=O)N[C@H](C(=O)O)C2CCCCC2)nn(-c2ccnc3cc(Cl)ccc23)c1-c1c(OC)cccc1OC [19b, (2S)-({[1-(7-Chloroquinolin-4-yl)-5-(2,6-dimethoxyphenyl)-4-ethyl-1H-pyrazol-3-yl]carbonyl}amino)(cyclohexyl)ethanoic Acid]",–,15 % of 5b and 15 ± 1 % of 5b,–,–,–
–,1.5 ± 0.6 nM,73 nM,"COc1cccc(OC)c1-c1cc(C(=O)NC2(C(=O)O)C3CC4CC(C3)CC2C4)nn1-c1ccc(C(=O)N(C)CCCN(C)C)cc1C(C)C (centres unmarked) [5b, reference compound]",1.5 nM,100 ± 5 % of 5b,20 nM,6 nM,–
–,–,–,"COc1ccccc1-c1cc(C(=O)NC2(C(=O)O)CCCCC2)nn1-c1cccc2ccccc12 [27b, 1-({[5-(2-Methoxyphenyl)-1-naphthalen-1-yl-1H-pyrazol-3-yl]carbonyl}amino)cyclohexane-carboxylic Acid]",7380 ± 1130 nM,18 % of 5b and 18 ± 2 % of 5b,108 ± 8 nM,694 ± 178 nM,–
–,–,–,"O=C(N[C@H](C(=O)O)C1CCCCC1)c1cc(-c2c(F)cccc2F)n(-c2ccnc3cc(Cl)ccc23)n1 [18b, (2S)-({[1-(7-Chloroquinolin-4-yl)-5-(2,6-difluorophenyl)-1H-pyrazol-3-yl]carbonyl}amino) (cyclohexyl)ethanoic Acid]",–,15 ± 3 % of 5b,166 ± 3 nM,1000 ± 227 nM,–
–,–,–,"COc1cccc(OC)c1-c1cc(C(=O)NC2(C(=O)O)C3CC4CC(C3)CC2C4)nn1-c1ccnc2cc(Cl)ccc12 (centres unmarked) [5a, Meclinertant, reference compound]",–,100 % of 5b and 100 ± 3 % of 5b and 100 ± 15 % of 5b,–,–,–
–,–,–,"COc1cccc(OC)c1-c1cc(C(=O)NC2(C(=O)O)C3CC4CC(C3)CC2C4)nn1-c1ccc(F)cc1 (centres unmarked) [compound 30, 2-({[5-(2,6-Dimethoxyphenyl)-1-(4-fluorophenyl)-1H-pyrazol-3-yl]carbonyl}amino) tricyclo[3.3.1.13,7]decane-2-carboxylic Acid]",191 ± 47 nM,34 % of 5b and 34 ± 5 % of 5b,68 nM,110 ± 29 nM,–
–,–,–,"COc1ccccc1-c1cc(C(=O)N[C@H](C(=O)O)C2CCCCC2)nn1-c1ccnc2cc(Cl)ccc12 [17b, (2S)-({[1-(7-chloroquinolin-4-yl)-5-(2-methoxyphenyl)-1H-pyrazol-3-yl]carbonyl}amino)(cyclohexyl) ethanoic acid]",1680 ± 527 nM,25 ± 2 % of 5b,258 ± 14 nM,1420 ± 468 nM,–
–,–,–,"COc1ccc(-c2cc(C(=O)N[C@H](C(=O)O)C3CCCCC3)nn2-c2ccnc3cc(Cl)ccc23)c(OC)c1 [16b, (2S)-({[1-(7-Chloroquinolin-4-yl)-5-(2,4-dimethoxyphenyl)-1H-pyrazol-3-yl]carbonyl}-amino)-(cyclohexyl)ethanoic Acid]",–,12 ± 3 % of 5b,382 ± 33 nM,1580 ± 505 nM,–
–,–,–,"COc1ccccc1-c1cc(C(=O)NC2(C(=O)O)CCCCC2)nn1-c1ccnc2cc(Cl)ccc12 [23b, 1-({[1-(7-Chloroquinolin-4-yl)-5-(2-methoxyphenyl)-1H-pyrazol-3-yl]carbonyl}amino)cyclohexane carboxylic Acid]",4550 ± 636 nM,35 % of 5b and 35 ± 1 % of 5b,62 ± 9 nM,533 ± 153 nM,–
–,–,–,"COc1ccccc1-c1cc(C(=O)N[C@H](C(=O)O)C2CCCCC2)nn1-c1cccc2ccccc12 [25b, (2S)-Cyclohexyl({[5-(2-methoxyphenyl)-1-naphthalen-1-yl-1H-pyrazol-3-yl]carbonyl}amino) ethanoic Acid]",1400 ± 330 nM,18 ± 2 % of 5b,229 ± 8 nM,2690 ± 639 nM,–
–,–,–,"CC[C@H](C)[C@H](NC(=O)[C@H](Cc1ccc(O)cc1)NC(=O)[C@@H]1CCCN1C(=O)[C@H](CCCNC(=N)N)NC(=O)[C@@H](N)CCCNC(=N)N)C(=O)N[C@@H](CC(C)C)C(=O)O [compound 1, Arg-Arg-Pro-Tyr-Ile-Leu, reference compound]",–,–,–,–,neither NT nor the NT(8-13) fragment (1) showed any calcium release
